Results reported in the supplement of paper PMC13380429.

Tests used:
Caco-2 [1] = assay: cell viability relative to DMSO; higher = less toxic; settings: 72 h
Calu-3 [2] = assay: as above; settings: 72 h
Vero E6 [3] = assay: as above; settings: 72 h
HepG2 [4] = assay: as above; settings: 72 h
U2OS [5] = assay: as above; settings: 72 h
[6] = test system: A549-ACE2 infected with SARS-CoV-2; assay: cell count relative to DMSO; higher = less toxic; settings: 24 h
A549-ACE2 [7] = assay: phospholipidosis EC50; higher = less potent phospholipidosis inducer
A549-ACE2 [8] = assay: drug-induced phospholipidosis relative to tamoxifen; higher = more phospholipidosis
Caco-2 [9] = assay: relative viability EC50 (midpoint between 100% and the lowest measured viability); higher = less toxic; settings: 72 h
Calu-3 [10] = assay: as above; settings: 72 h
Vero E6 [11] = assay: as above; settings: 72 h
HepG2 [12] = assay: as above; settings: 72 h
U2OS [13] = assay: as above; settings: 72 h
Caco-2 [14] = assay: drug sensitivity score (DSS) for viability; higher = more toxic; extreme values may be limits of the assay; settings: 72 h
Calu-3 [15] = assay: as above; settings: 72 h
Vero E6 [16] = assay: as above; settings: 72 h
HepG2 [17] = assay: as above; settings: 72 h
U2OS [18] = assay: as above; settings: 72 h
[19] = test system: A549-ACE2 infected with SARS-CoV-2; assay: SARS-CoV-2 infection rate relative to DMSO; higher = more infection; settings: 24 h
[20] = test system: A549-ACE2 infected with SARS-CoV-2; assay: morphology score (similarity to uninfected cells); higher = more like uninfected cells; settings: 24 h

Cc1ccc(NC(=O)Nc2cc(C(F)(F)F)ccc2F)cc1Nc1ccc2c(c1)NC(=O)/C2=C\c1ccc[nH]1 [GNF-5837]
Settings	SARS-CoV-2 infection rate [%]	cell count [%]	cell viability [%]	morphology score	phospholipidosis EC50 [µM]
A549-ACE2 [7], 24 h	–	–	–	–	2.17
A549-ACE2 [7], 48 h	–	–	–	–	2.34
A549-ACE2 [7], 72 h	–	–	–	–	2.6
Caco-2 [1], 1 nM	–	–	105	–	–
Caco-2 [1], 10 nM	–	–	97.6	–	–
Caco-2 [1], 100 nM	–	–	103	–	–
Caco-2 [1], 1000 nM	–	–	94.5	–	–
Caco-2 [1], 10000 nM	–	–	75.7	–	–
Calu-3 [2], 1 nM	–	–	97.9	–	–
Calu-3 [2], 10 nM	–	–	96.4	–	–
Calu-3 [2], 100 nM	–	–	100	–	–
Calu-3 [2], 1000 nM	–	–	109	–	–
Calu-3 [2], 10000 nM	–	–	96.9	–	–
HepG2 [4], 1 nM	–	–	92.5	–	–
HepG2 [4], 10 nM	–	–	98.7	–	–
HepG2 [4], 100 nM	–	–	98.5	–	–
HepG2 [4], 1000 nM	–	–	103	–	–
HepG2 [4], 10000 nM	–	–	39	–	–
U2OS [5], 1 nM	–	–	99.6	–	–
U2OS [5], 10 nM	–	–	97.2	–	–
U2OS [5], 100 nM	–	–	97.2	–	–
U2OS [5], 1000 nM	–	–	98.2	–	–
U2OS [5], 10000 nM	–	–	85.5	–	–
Vero E6 [3], 1 nM	–	–	107	–	–
Vero E6 [3], 10 nM	–	–	107	–	–
Vero E6 [3], 100 nM	–	–	97	–	–
Vero E6 [3], 1000 nM	–	–	106	–	–
Vero E6 [3], 10000 nM	–	–	83.5	–	–
[6], 0.3 µM	–	100	–	–	–
[6], 3 µM	–	105	–	–	–
[6], 10 µM	–	115	–	–	–
[6], 30 µM	–	96	–	–	–
[19], 0.3 µM	103	–	–	–	–
[19], 3 µM	85	–	–	–	–
[19], 10 µM	22	–	–	–	–
[19], 30 µM	44	–	–	–	–
[20], 0.3 µM	–	–	–	-0.15	–
[20], 3 µM	–	–	–	0.36	–
[20], 10 µM	–	–	–	0.82	–
[20], 30 µM	–	–	–	0.59	–

drug-induced phospholipidosis [%], A549-ACE2 [8]
Settings	0.3 µM	0.833333 µM	3.33333 µM	6.66667 µM	10 µM	30 µM
24 h	4.96	25.4	116	132	160	164
48 h	4.94	9.4	80.5	95.6	96.1	120
72 h	3.67	5.1	59.1	70.1	78.2	91.4

Settings	drug sensitivity score	relative viability EC50 [µM]
Caco-2 [9]	–	> 10
Caco-2 [14]	1.7	–
Calu-3 [10]	–	> 10
Calu-3 [15]	0	–
HepG2 [12]	–	3.46
HepG2 [17]	3	–
U2OS [13]	–	> 10
U2OS [18]	0.4	–
Vero E6 [11]	–	> 10
Vero E6 [16]	0.2	–

C=C1C(=O)O[C@@H]2[C@H]3C(C)=CC[C@@]34O[C@@]4(C)CC[C@@H]12 [arglabin]
Settings	SARS-CoV-2 infection rate, [19] [%]	cell count, [6] [%]	cell viability, Caco-2 [1] [%]	cell viability, Calu-3 [2] [%]	cell viability, HepG2 [4] [%]	cell viability, U2OS [5] [%]	cell viability, Vero E6 [3] [%]	morphology score, [20]
1 nM	–	–	91.6	90.2	96.1	97.1	110	–
10 nM	–	–	97.8	99.8	92.2	102	99.2	–
100 nM	–	–	100	88.3	96.7	100	110	–
0.3 µM	105	96	–	–	–	–	–	0.02
1000 nM	–	–	104	105	98.2	105	103	–
3 µM	94	100	–	–	–	–	–	0.01
10000 nM	–	–	58.2	68	56.1	76.5	104	–
10 µM	95	78	–	–	–	–	–	-0.15
30 µM	33	36	–	–	–	–	–	0.3

drug-induced phospholipidosis [%], A549-ACE2 [8]
Settings	0.3 µM	0.833333 µM	3.33333 µM	6.66667 µM	10 µM	30 µM
24 h	2.94	-0.34	2.52	0.97	8.21	-1.1
48 h	2.9	0.06	1.52	0.03	4.18	–
72 h	2.96	-0.707	0.896	0.278	0.729	–

Settings	drug sensitivity score	relative viability EC50 [µM]
Caco-2 [14]	1.8	–
Calu-3 [15]	1.2	–
HepG2 [17]	2.5	–
U2OS [13]	–	> 10
U2OS [18]	0.6	–
Vero E6 [11]	–	> 10
Vero E6 [16]	0	–
